Data reported in article PMC10165273, “Itch receptor MRGPRX4 interacts with the receptor activity–modifying proteins” (The Journal of Biological Chemistry, 2023).
Where two headings read alike, the source gives them in different places.

Biological target: T1, MRGPRX4 (Homo sapiens, UniProt Q96LA9)
T1 construct: expressed in transfected cells; host or cells: HEK293T
Test: IP1 accumulation HTRF assay, MRGPRX4
Type: cell-based
Set-up: key to IP1 Basal / IP1 accumulation with YM (Figure 1c) / response to agonist, MRGPRX4 / IP1 accumulation: % IP1: unstimulated mock-transfected = 0%, fully stimulated MRGPRX4 = 100%
Conditions: for Emax: HEK-293T

T1 sequence (Q96LA9 whole entry): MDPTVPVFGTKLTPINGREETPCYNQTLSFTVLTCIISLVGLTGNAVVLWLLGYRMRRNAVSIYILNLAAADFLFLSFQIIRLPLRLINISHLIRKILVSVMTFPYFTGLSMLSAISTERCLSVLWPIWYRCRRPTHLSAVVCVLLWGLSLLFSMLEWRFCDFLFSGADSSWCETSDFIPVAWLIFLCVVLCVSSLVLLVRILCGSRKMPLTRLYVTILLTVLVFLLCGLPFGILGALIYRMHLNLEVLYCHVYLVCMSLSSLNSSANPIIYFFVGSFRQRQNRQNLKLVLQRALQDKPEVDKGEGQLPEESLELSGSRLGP

Compound: C[C@H](CCC(=O)NCCS(=O)(=O)O)[C@H]1CC[C@H]2[C@@H]3CC[C@@H]4C[C@H](O)CC[C@]4(C)[C@H]3C[C@H](O)[C@]12C [TDCA, Taurodeoxycholic acid]
- activation at 100 µM (2 h, log [agonist] (M) -4, MRGX4-transfected, individual replicates, read-out: IP1 accumulation, dose-response (Figure 1a)): 48.8%
- activation at 33.333 µM (2 h, log [agonist] (M) -4.47712, MRGX4-transfected, individual replicates, read-out: IP1 accumulation, dose-response (Figure 1a)): 32.5%
- activation at 11.111 µM (2 h, log [agonist] (M) -4.95424, MRGX4-transfected, individual replicates, read-out: IP1 accumulation, dose-response (Figure 1a)): 22.8%
- activation at 3.7037 µM (2 h, log [agonist] (M) -5.43136, MRGX4-transfected, individual replicates, read-out: IP1 accumulation, dose-response (Figure 1a)): 12.8%
- activation at 1.2346 µM (2 h, log [agonist] (M) -5.90849, MRGX4-transfected, individual replicates, read-out: IP1 accumulation, dose-response (Figure 1a)): 12.2%
- activation at 0.4115 µM (2 h, log [agonist] (M) -6.38561, MRGX4-transfected, individual replicates, read-out: IP1 accumulation, dose-response (Figure 1a)): 12.6%
- activation at 0.13717 µM (2 h, log [agonist] (M) -6.86273, MRGX4-transfected, individual replicates, read-out: IP1 accumulation, dose-response (Figure 1a)): 10.1%
- response to agonist, MRGPRX4 (Figure 4c-f, agonist 100µM, MRGPRX4 alone (reference = 100)): 100
- Emax (MRGPRX4 (Fig. 1A), HEK293T, normalized to 100 μM nateglinide, read-out: IP1 Emax): 84.2%
- Emax (MRGPRX4 (Fig. 1A), HEK293T, normalized to 100 μM nateglinide, read-out: IP1 span): 69.6%
- IP1 Basal (MRGPRX4 (Fig. 1A), HEK293T, normalized to 100 μM nateglinide): 14.54
- EC50 (MRGPRX4 (Fig. 1A), HEK293T, normalized to 100 μM nateglinide, read-out: IP1 EC50): 53.2 µM
